One data set relates to xanthomas. Conditions: patients suffering from familial hypercholesterolemia; cited from earlier work.
Data set [1] concerns lipid peroxidation (rat liver homogenate). In words: Antioxidant activity, inhibition of iron induced lipid peroxidation in liver homogenate. In kind it is biochemical, Wistar rat. The following applies: FeSO4, 37° C., 2 h; <25 μM where IC50 was not determined. The protocol: The liver of a Wistar rat anesthetized with ether was collected and homogenized in 4 volumes of phosphate buffer (+4° C., pH 7.4) by means of a Potter. After centrifugation at 2000 rpm for 10 min the supernatant obtained was kept at +4° C. Lipid peroxidation was carried out in presence of FeSOhd according to the method described by A. T. Quitaniha et at, Ann.
The mixture contained 1.7 ml phosphate buffer, 0.2 ml homogenate and 0.1 ml of a 2 mM FeSO4 solution. The test compounds were added in a volume of 61 μl of ethanol or DMSO. Oxydation was carried out at 37° C. for 2 h and was stopped by the addition of 20 μl of 2% ethanolic solution of BHT.

In data set [2] the test system is deposition of cholesterol in the arteries. The following applies: hereditary atherosclerotic rabbits; cited from earlier work.
For another data set, the system named is plasma cholesterol. In words: Hypocholesterolemic activity, plasma cholesterol in mice fed test compound in diet. The data set is classed as in vivo, OF1 strain mice. The following applies: for change in vivo at 180 mg/kg/day: Mus musculus, feed or water, 240 h, read-out: Plasma Cholesterol (% Control), 0.1% compound in food, 10 days, ca. 180 mg/kg daily, mouse; for decrease plasma cholesterol by: 0.1% in food. On the procedure:
A. Hypocholesterolemic activity
Mouse fed a normal diet is a convenient model which was proposed by several authors (P. Olivier et al, Atherosclerosis 70, 107-114, 1988) ,for the screening for hypocholesterolemic drugs. OF1 strain mice (Iffa Credo) weighing between 25 and 35 g were divided into 5 groups of 5 animals each, four groups received the test compounds and the fifth group served as control. The test compounds were dissolved in diethyl ether. The ether solution was added to food to obtain a final concentration of 0.1%. compound in food. Ether was then evaporated at room temperature. The animals were fed for 10 days, the dally food intake corresponds to ca. 180 mg/kg. After an overnight fast, they were sacrificed by decapitation under ether anesthesia. Blood samples were collected using EDTA as anticoagulant.
Plasma cholesterol was measured by an enzymatic test (DIAMED, Morat, Switzerland). The mean values of each group receiving the test or reference compounds were expressed as percent of mean value of the contemporary control.

A further data set has as its system Hep G2 cells. Description: Incorporation of 14C acetate in cholesterol synthesized by Hep G2 cells. The data set is classed as cell-based. Conditions: positive control.
For the next data set, the system named is CaCo-2. The data set is classed as cell-based. The source says:
In these two tests the positive control Lovastatin (hypocholesterolemic drug with HMGCoA reductase inhibitory activity) inhibits the enzyme and the ^14 C acetate incorporation by more than 98%. The mechanism of hypocholesterolemia of this class is different and potentially unique.

The next data set deals with HMGCoA reductase. In words: Inhibition of the enzyme HMGCoA reductase. In kind it is biochemical. The following applies: positive control.

On to `CC(C)(Sc1cc(C(C)(C)C)c(O)c(C(C)(C)C)c1)Sc1cc(C(C)(C)C)c(O)c(C(C)(C)C)c1` [Probucol], for which, in the data set with xanthomas, the “effect on xanthomas (in words)” value is “induces the regression of xanthomas”. Moreover, the IC50 (commonly the midpoint of a concentration-inhibition curve) in data set [1] was > 25 µM. The “effect on deposition of cholesterol in the arteries (in words)” value in data set [2] is given as “prevents the deposition of cholesterol in the arteries”.
`CCOP(=O)(OCC)C(NCCc1ccccc1)c1cc(C(C)C)c(O)c(C(C)C)c1` (centres unmarked) [Compound 74]: the change in vivo at 180 mg/kg/day in the data set with plasma cholesterol is -16%. In data set [1], this compound yielded an IC50 of 4.4 µM.
For `CCOP(=O)(OCC)C(NCc1ccc2c(c1)OCO2)c1cc(C(C)(C)C)c(O)c(C(C)(C)C)c1` (stereo not drawn) [Compound 38, Diethyl α-(3,5-di-tert-butyl4-hydroxyphenyl)-N-piperonyl-aminomethylphosphonate], the change in vivo at 180 mg/kg/day in the data set on plasma cholesterol was -40%. In addition, in the data set on plasma cholesterol (mouse, 10 days), the “decrease plasma cholesterol by” value is “more than 30%”. Also, the IC50 in data set [1] was found to be 4.3 µM.
Turning to `CCOP(=O)(OCC)C(NCCCc1ccccc1)c1ccc(O)c([N+](=O)[O-])c1` (centres unmarked) [Compound 77], in the data set on plasma cholesterol, the change in vivo at 180 mg/kg/day was -3%. For the same compound, the IC50 in data set [1] was > 25 µM.
In the case of `CC[C@H](C)C(=O)O[C@H]1C[C@@H](C)C=C2C=C[C@H](C)[C@H](CC[C@@H]3C[C@@H](O)CC(=O)O3)[C@H]21` [Lovastatin], the “inhibition of 14C acetate incorporation, Hep G2” value in the data set with Hep G2 cells is listed as “more than 98%”. The “inhibition of 14C acetate incorporation, CaCo-2” value with CaCo-2 is given as “more than 98%”. Moreover, the “inhibition of HMGCoA reductase” value in the data set with HMGCoA reductase is reported as “more than 98%”.
For `CCOP(=O)(OCC)C(NCCCc1ccccc1)c1cc(C(C)(C)C)c(O)c(C(C)(C)C)c1` (stereo not drawn) [Compound 22, Diethyl α-(3,5-di-tert-butyl-4-hydroxyphenyl)-N-(3-phenytpropyl)aminomethylphosphonate], in the data set on plasma cholesterol (0.1% compound in food, 10 days, ca. 180 mg/kg daily, mouse), the “Plasma Cholesterol (% Control)” value is -53 % Control. Besides, the “decrease plasma cholesterol by” value in the data set with plasma cholesterol (mouse, 10 days) is recorded as “more than 30%”. Further, the IC50 in data set [1] came to 4 µM.
Turning to `CCOP(=O)(OCC)C(NCc1ccccc1)c1cc(OC)c(O)c(OC)c1` (centres unmarked) [Compound 71], in the data set with plasma cholesterol, the change in vivo at 180 mg/kg/day turned out to be 1%. The IC50 in data set [1] is > 25 µM.
With `CCOP(=O)(OCC)C(NC(Cc1ccccc1)c1ccccc1)c1cc(C(C)(C)C)c(O)c(C(C)(C)C)c1` (centres unmarked) [Compound 33], the change in vivo at 180 mg/kg/day in the data set on plasma cholesterol is -14%. Moreover, the IC50 in data set [1] was < 25 µM.
In the case of `Cc1cc(C(C)(C)C)c(O)c(C(C)(C)C)c1` [BHT, 2,6-di-tert-butyl-4-methylphenol, reference compound], the “hypocholesterolemic activity (in words)” value in the data set with plasma cholesterol (this model (mouse)) is listed as “no hypocholesterolemic activity”. Besides, the IC50 in data set [1] is 5 µM.
In the case of `CCCOP(=O)(OCCC)C(c1cc(C(C)(C)C)c(O)c(C(C)(C)C)c1)N(CCCc1ccccc1)C(C)=O` (centres unmarked) [Compound 61], the change in vivo at 180 mg/kg/day in the data set with plasma cholesterol is -43%. For the same compound, the “decrease plasma cholesterol by” value with plasma cholesterol (mouse, 10 days) was “more than 30%”. In addition, the IC50 in data set [1] is < 25 µM.
`COP(=O)(OC)C(NCCc1ccc(Cl)cc1)c1cc(C(C)(C)C)c(O)c(C(C)(C)C)c1` (centres unmarked) [Compound 16]: the change in vivo at 180 mg/kg/day in the data set on plasma cholesterol was -28%. The compound further returned an IC50 in data set [1] of 4.9 µM.
The matching figures for `CCCCOP(=O)(OCCCC)C(NCCc1ccc(Cl)cc1)c1cc(C(C)(C)C)c(O)c(C(C)(C)C)c1` (centres unmarked) [Compound 20]: -9% and 3.4 µM.
With `CCOP(=O)(OCC)C(NC1CC(C)(C)NC(C)(C)C1)c1cc(C(C)(C)C)c(O)c(C(C)(C)C)c1` (centres unmarked) [Compound 35], the change in vivo at 180 mg/kg/day in the data set with plasma cholesterol was -17%. Besides, in data set [1], the IC50 was > 25 µM.
The matching figures for `CCOP(=O)(OCC)C(Nc1ccc2c(c1)Cc1ccccc1-2)c1cc(C(C)(C)C)c(O)c(C(C)(C)C)c1` (centres unmarked) [Compound 48]: 3% and < 25 µM.
The matching figures for `CCOP(=O)(OCC)C(NCCc1ccccc1)c1cc(C)c(O)c(C(C)(C)C)c1` (centres unmarked) [Compound 75]: -12% and 4.8 µM.
The corresponding values for `CCOP(=O)(OCC)C(NCCc1ccccc1)c1cc(C)c(O)c(C)c1` (centres unmarked) [Compound 72] are -1% and > 25 µM.
Regarding `CCOP(=O)(OCC)C(Nc1ccc2c(c1)CCC2)c1cc(C(C)(C)C)c(O)c(C(C)(C)C)c1` (centres unmarked) [Compound 47], in the data set with plasma cholesterol, the change in vivo at 180 mg/kg/day was -2%. This compound gave an IC50 in data set [1] of 2.7 µM.
As to `CCCCCNC(c1cc(C(C)(C)C)c(O)c(C(C)(C)C)c1)P(=O)(OCC)OCC` (centres unmarked) [Compound 2], in the data set with plasma cholesterol, the change in vivo at 180 mg/kg/day is -8%. Also, the IC50 in data set [1] amounted to 2.5 µM.
The corresponding values for `CCOP(=O)(OCC)C(NCCCc1ccccc1)c1ccc(O)c(O)c1` (centres unmarked) [Compound 78] are -5% and < 25 µM.
For the compound `CCOP(=O)(OCC)C(NCCc1ccc(Cl)cc1)c1cc(C(C)(C)C)c(O)c(C(C)(C)C)c1` (stereo not drawn) [Compound 17, Diethyl α-(3,5-di-tert-butyl-4-hydroxyphenyl)-N-[2-(4-chlorophenyl)ethyl]-aminomethylphosphonate], the change in vivo at 180 mg/kg/day in the data set with plasma cholesterol is -43%. Further, the “decrease plasma cholesterol by” value in the data set on plasma cholesterol (mouse, 10 days) was “more than 30%”. The IC50 in data set [1] was 5.3 µM.
As to `CCOP(=O)(OCC)C(NCCCc1ccccc1)c1ccc2c(c1)OCO2` (stereo not drawn) [Compound 80, Diethyl α-(3,4t-methylenedioxyphenyl)-N-(3-phenylpropyl)-aminomethylphosphonate], in the data set with plasma cholesterol, the change in vivo at 180 mg/kg/day was -29%. Moreover, in data set [1], the IC50 was > 25 µM.
On to `CCOP(=O)(OCC)C(Nc1ccc(O)c(C)c1)c1cc(C(C)(C)C)c(O)c(C(C)(C)C)c1` (centres unmarked) [Compound 5], for which the change in vivo at 180 mg/kg/day with plasma cholesterol stood at 2%. Moreover, in data set [1], it took 1.3 µM to reach half-maximal inhibition (IC50).

(Values after patent publication US5424303A, “Substituted aminophosphonate derivatives, process for their preparation and pharmaceutical compositions containing them” (Symphar SA, priority 1992, dated 1995).)
